Consider 17 compounds from PMC11397035, “In Vitro and In Silico Analysis of PTP1B Inhibitors from Cleistocalyx operculatus Leaves and Their Effect on Glucose Uptake” (Nutrients, 2024).

For experiment [1], the target named is T1, PTP1B (Homo sapiens, UniProt P18031).
T1 construct: purchased Enzo Life Sciences Inc
T1 sequence (P18031 1-435): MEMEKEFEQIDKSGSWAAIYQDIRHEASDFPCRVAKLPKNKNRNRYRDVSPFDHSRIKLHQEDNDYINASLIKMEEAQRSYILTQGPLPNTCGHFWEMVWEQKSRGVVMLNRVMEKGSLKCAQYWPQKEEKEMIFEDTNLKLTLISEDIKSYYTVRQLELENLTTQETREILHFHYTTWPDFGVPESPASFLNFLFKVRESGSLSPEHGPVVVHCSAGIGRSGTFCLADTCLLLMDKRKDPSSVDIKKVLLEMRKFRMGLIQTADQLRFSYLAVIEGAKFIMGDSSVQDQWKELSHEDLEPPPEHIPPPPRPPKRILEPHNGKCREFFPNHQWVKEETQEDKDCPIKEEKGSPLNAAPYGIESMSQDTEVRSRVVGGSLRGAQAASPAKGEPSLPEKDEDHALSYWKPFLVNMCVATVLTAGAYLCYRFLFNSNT
Kind of experiment: In vitro PTP1B inhibition assay (p-NPP substrate). The format is biochemical. On the procedure:
PTP1B enzyme inhibition activity was assessed following a previously described protocol. […] It was followed by incubation at 37 °C for 30 min. After that, 10 μL of 10 M NaOH was added to quench the reaction. […] The non-enzymatic reaction of the substrate was considered and accounted for by comparing data to a control experiment without the PTP1B enzyme. IC50 values were calculated using non-linear regression in GraphPad Prism 10 (GraphPad Software, Inc., San Diego, CA, USA), based on triplicate experiments.

The test system of experiment [2] is 3T3-L1 adipocytes. Nature of the experiment: Glucose uptake using the 2-NBDG probe in differentiated 3T3-L1 adipocytes. The settings on record: 1 h; for glucose uptake (2-NBDG) stimulatory effect: 20 μM; for concentration-response of glucose uptake stimulation: 5, 10, and 20 μM. The format is cell-based. On the procedure:
3T3-L1 fibroblasts were cultured in DMEM (HyClone, Logan, UT, USA) supplemented with 10% calf serum, 100 U/mL penicillin, and 100 μg/mL streptomycin from Gibco (Grand Island, NY, USA). The cells were incubated at 37 °C with 5% CO2. Cells were differentiated after treatment with DMEM enriched with 10% fetal bovine serum (FBS) (HyClone, Logan, UT, USA), 1 μM dexamethasone (Sigma, St. Louis, MO, USA), 520 μM 3-isobutyl-1-methylxanthine (Sigma, St. Louis, MO, USA), and 1 μg/mL insulin (Roche, Mannheim, Germany). After 48 h, the media were changed with fresh DMEM containing 10% FBS, 1 μg/mL insulin, 100 U/mL penicillin, and 100 μg/mL streptomycin. Every 48 ours, the media were replaced until the induction of adipogenesis. Intracellular lipid droplets appeared after 4 to 6 days of incubation.
In vitro experiments measured glucose uptake in 3T3-L1 adipocytes using 2-NBDG, a fluorescent glucose derivative (Invitrogen, Eugene, OR, USA). Cells were cultured on 96-well plates in a glucose-free medium supplemented with 10% FBS. After incubation, cells were treated with either insulin (as a positive control) or the test compounds in the presence or absence of 2-NBDG and were further incubated for an additional hour. Cells were washed with cold phosphate-buffered saline (PBS). The 2-NBDG fluorescence was quantified by measuring the signal intensity at excitation/emission wavelengths of 450/535 nm using a SpectraMax Gemini XPS fluorescence microplate reader (Molecular Devices, San Jose, CA, USA). For cellular transport studies involving 2-NBDG, 3T3-L1 adipocytes were grown on sterilized glass coverslips in a glucose-free medium containing 10% FBS for 24 h. After treatment with 2-NBDG, cells were washed with cold PBS. Fluorescent images were obtained with an Olympus IX 70 fluorescence microscope (Olympus Corporation, Tokyo, Japan) to quantify the cellular transport of 2-NBDG.

Experiment [3] deals with T1, PTP1B. Nature of the experiment: Kinetic analysis with PTP1B (Lineweaver–Burk and Dixon plots). The class given is biochemical. The settings on record: for Ki: determined by Dixon plot interpretation; for Inhibition Type: determined by Lineweaver–Burk plots. As for the experimental part: Reaction velocity was measured at different concentrations of tested compounds for kinetic analysis. The tested compounds or DMSO were preincubated with the enzyme and buffer solution at 37 °C for 2 min, followed by adding 50 μL of substrate (p-NPP) at different concentrations. The initial reaction velocities were monitored at 37 °C at 405 nm for 15 min. The kinetic reaction slopes were calculated based on the absorbance increments observed between 2 and 10 min (within the linear range). GraphPad Prism 10 (GraphPad Software, Inc., San Diego, CA, USA) was used to graph the double reciprocal Lineweaver–Burk and Dixon plots.

For experiment [4], the system named is pre-diabetic male Sprague Dawley rats. Details: method as in PMID 29596390. The following applies: pre-diabetic male Sprague Dawley rats ref 44; cited from earlier work.
Experiment [5] relates to 3T3-L1 adipocytes. Further details: method as in PMID 27765349. The settings on record: cited from earlier work.
Setting [6] is: 50% PTP1B inhibitory effect, mean ± S.E.M. of triplicate experiments, six concentrations, read-out: IC50.

“Also recorded” adds a separate entry of the source. Like-named read-outs stand apart in the source and are kept apart here.

As usually defined, the IC50 is the concentration that inhibits the measured activity by half. What is called Ki is the equilibrium dissociation constant of an inhibitor or competing ligand from its target. Read a high Ki as a looser hold on the target.

For `C=C(CO)C1CCC2(C(=O)OC)CCC3(C(=O)O)C(CCC4C5(C)CCC(O)C(C)(C)C5CCC43C)C12` (centres unmarked) [Compound 1, Cleistocalyxic acid L], the half-inhibitory concentration (IC50) in experiment [1] (setting [6]) was over 20 µM.
Still for that read-out and setting: the value for `C=C(C)C1CCC2(C(=O)OC)CCC3(C(=O)O)C(CCC4C5(C)CCC(O)C(C)(CO)C5CCC43C)C12` (centres unmarked) [Compound 2, Cleistocalyxic acid M] was over 20 µM.
Regarding `C=C1CCC23CCC4(C)C5(C)CCC6C(=C)C(O)C(O)CC6(C)C5C5OC5C4(OC2=O)C3C1C` (centres unmarked) [Compound 3, Cleistocalyxolide C], the “PTP1B inhibitory activity (in words)” value in experiment [1] is “reduced inhibitory effects”. Besides, in experiment [1] (setting [6]), the IC50 was over 20 µM. The “glucose uptake (2-NBDG) stimulatory effect” value in experiment [2] is given as “low glucose uptake stimulation”.
As for `C=C(C)[C@@H]1CC[C@]2(C(=O)OC)CC[C@]3(C(=O)O)C(CCC4[C@@]5(C)CC[C@H](O)C(C)(C)C5CC[C@]43C)C12` (some centres unmarked) [Compound 4, melaleucic acid 28-O-methyl ester], the IC50 in experiment [1] (setting [6]) was 8.7 ± 0.6 µM.
As for `C=C(C)[C@@H]1CC[C@]2(C(=O)O)CC[C@]3(C)[C@H](CC[C@@H]4[C@@]5(C)CC[C@H](O)C(C)(C)[C@@H]5CC[C@]43C)[C@@H]12` [Compound 5, betulinic acid], the “PTP1B inhibitory activity (in words)” value in experiment [1] is “significant inhibitory activity”. The IC50 in experiment [1] (setting [6]) came out at 2.2 ± 0.1 µM.
Regarding `C=C(C)[C@@H]1CC[C@]2(C(=O)O)CC[C@]3(C)[C@H](CC[C@@H]4[C@@]5(C)C[C@@H](O)[C@H](O)C(C)(C)[C@@H]5CC[C@]43C)[C@@H]12` [Compound 6, alphitolic acid], in experiment [1], the “PTP1B inhibitory activity (in words)” value is given as “strong PTP1B inhibitory activities”. The IC50 in experiment [1] (setting [6]) was 4.1 ± 0.2 µM. In experiment [2], the “glucose uptake (2-NBDG) stimulatory effect” value is “showed glucose uptake stimulatory effects; also recorded: particularly potent glucose uptake stimulatory effects” and the “concentration-response of glucose uptake stimulation” value (shortened to “concentration-response”) is recorded as “dose dependent”. Also, in experiment [3], the Ki turned out to be 2.8 ± 0.4 µM and the “Inhibition Type” value is recorded as “non-competitive inhibitor of PTP1B”.
Consider `C=C1[C@@H](O)[C@H](O)C[C@]2(C)[C@H]3[C@@H]4O[C@@H]4[C@]45OC(=O)[C@@]6(CC[C@@H](C)[C@H](C)[C@H]64)CC[C@@]5(C)[C@]3(C)CC[C@@H]12` [Compound 7, ulmoidol], for which the “PTP1B inhibitory activity (in words)” value in experiment [1] is “reduced inhibitory effects”. Besides, the concentration for half-maximal inhibition (IC50) in experiment [1] (setting [6]) was over 20 µM. In experiment [2], the “glucose uptake (2-NBDG) stimulatory effect” value is given as “low glucose uptake stimulation”.
On the same counts, the results for `CC1(C)CCC23CCC4(C)C5(C)CCC6C(C)(C)C(O)C(O)CC6(C)C5CC(O)C4(OC2=O)C3C1` (centres unmarked) [Compound 8, (2a, 3b, 12a)-trihydorxy-olean-28-oic acid 28,13-lactone] are “reduced inhibitory effects”, over 20 µM and “low glucose uptake stimulation”.
In the case of `C[C@@H]1CC[C@]2(C(=O)O)CC[C@]3(C)C(=CCC4[C@@]5(C)C[C@@H](O)[C@H](O)[C@@](C)(CO)C5CC[C@]43C)C2[C@]1(C)O` (some centres unmarked) [Compound 9], the “PTP1B inhibitory activity (in words)” value in experiment [1] is “strong PTP1B inhibitory activities”. The half-maximal inhibitory concentration (IC50) in experiment [1] (setting [6]) was found to be 4.4 ± 0.5 µM. For the same compound, in experiment [3], the inhibitory constant (Ki) worked out at 7.6 ± 1.2 µM and the “Inhibition Type” value is reported as “non-competitive inhibitor of PTP1B”.
On to `C=C1C2CC[C@]3(C)C(CC=C4C5[C@](C(=O)O)(CC[C@@H](C)[C@@]5(C)O)CC[C@]43C)[C@@]2(C)C[C@@H](O)[C@@H]1O` (stereo partly drawn) [Compound 10, 2α,3β,19α-trihydroxy-24-norurs-4(23),12-dien-28-oic acid], for which, in experiment [1] (setting [6]), the half-maximal inhibitory concentration (IC50) is 12.2 ± 0.3 µM.
Still for that read-out and setting: the same measure for `C=C1[C@@H](O)[C@H](O)C[C@]2(C)[C@H]3CC=C4[C@@H]5[C@@H](C)[C@H](C)CC[C@]5(C(=O)O)CC[C@@]4(C)[C@]3(C)CC[C@@H]12` [Compound 11, ilekudinol B]: 14.1 ± 0.3 µM.
Turning to `CC1(C)CC[C@]2(C(=O)O)CC[C@]3(C)C(=CC[C@@H]4[C@@]5(C)CC[C@H](O)C(C)(C)[C@@H]5CC[C@]43C)[C@@H]2C1` [Compound 12, oleanolic acid], the “glucose homeostasis and progression of type 2 diabetes” value in experiment [4] was “improve glucose homeostasis and prevent the progression of type 2 diabetes”. Besides, in experiment [2], the “glucose uptake (2-NBDG) stimulatory effect” value was “showed glucose uptake stimulatory effects”.
Regarding `CC1(C)CC[C@]2(C(=O)O)CC[C@]3(C)C(=CC[C@@H]4[C@@]5(C)C[C@@H](O)[C@H](O)C(C)(C)[C@@H]5CC[C@]43C)[C@@H]2C1` [Compound 13, maslinic acid], in experiment [5], the glucose uptake entry is reported as “increased glucose uptake”; the “intracellular Ca2+ concentration” value is reported as “raised intracellular Ca^2+ concentration”; the “lipid droplet and triglyceride levels” value was “reduced lipid droplet and triglyceride levels”. In addition, in experiment [1], the IC50 turned out to be 1.28 ± 0.1 µM and the “PTP1B inhibitory activity (in words)” value is reported as “significant inhibitory activity”. Moreover, in experiment [2], the “glucose uptake (2-NBDG) stimulatory effect” value is “showed glucose uptake stimulatory effects; also recorded: particularly potent glucose uptake stimulatory effects” and the “concentration-response” value was “dose dependent”. Also, in experiment [3], the Ki came to 3.2 ± 0.6 µM and the “Inhibition Type” value is listed as “non-competitive inhibitor of PTP1B”.
Regarding `CC1(C)CC[C@]2(CO)CC[C@]3(C)C(=CC[C@@H]4[C@@]5(C)CC[C@H](O)C(C)(C)[C@@H]5CC[C@]43C)[C@@H]2C1` [Compound 14, erythrodiol], the 50% inhibitory concentration (IC50) in experiment [1] (setting [6]) came out at 3.6 ± 0.2 µM.
The same measure, in the same setting: the same measure for `CC1(C)CC[C@]2(C(=O)O)CC[C@]3(C)C(=CC[C@@H]4[C@@]5(C)C[C@@H](O)[C@H](O)[C@@](C)(CO)[C@@H]5CC[C@]43C)[C@@H]2C1` [Compound 15, arjunolic acid]: 6.6 ± 0.6 µM.
As for `CC1(C)CC[C@]2(C(=O)O)CC[C@]3(C)C(=CCC4[C@@]5(C)C[C@@H](O)[C@H](OC(=O)/C=C/c6ccc(O)cc6)C(C)(C)C5CC[C@]43C)C2C1` (some centres unmarked) [Compound 16, 3-O-(E)-p-coumaroyl maslinic acid], in experiment [1] (setting [6]), the half-inhibitory concentration (IC50) is 3.6 ± 0.4 µM. Also, the “glucose uptake (2-NBDG) stimulatory effect” value in experiment [2] is “showed glucose uptake stimulatory effects”.
For `CC1(C)CC[C@]2(C(=O)O)CC[C@]3(C)C(=CCC4[C@@]5(C)C[C@@H](O)[C@H](OC(=O)/C=C\c6ccc(O)cc6)C(C)(C)C5CC[C@]43C)C2C1` (some centres unmarked) [Compound 17, 3-O-(Z)-p-coumaroyl maslinic acid], the “PTP1B inhibitory activity (in words)” value in experiment [1] was “strong PTP1B inhibitory activities; also recorded: significant inhibitory activity”. The IC50 in experiment [1] (setting [6]) came out at 2.6 ± 0.3 µM. Besides, in experiment [2], the “glucose uptake (2-NBDG) stimulatory effect” value is listed as “showed glucose uptake stimulatory effects; also recorded: particularly potent glucose uptake stimulatory effects” and the “concentration-response” value is “dose dependent”. In experiment [3], the Ki came out at 2.7 ± 0.4 µM and the “Inhibition Type” value is listed as “non-competitive inhibitor of PTP1B”.
